The text below walks through data of patent US20260256751A1, “COMBINATION OF BETA-2-ADRENERGIC RECEPTOR AGONISTS AND GLP-1 RECEPTOR AGONISTS FOR USE IN TREATING HYPERGLYCAEMIA” (ATROGI AB, priority 2023, published 2026).

Some results are limits rather than exact numbers.

The subject of test [1] is differentiated L6-myotubes. Nature of the test: Glucose uptake screen (Biological example 1 of WO 2019/053427). Format: cell-based. To be noted: compound at 10 μM, activity relative to isoproterenol at 10 μM, read-out: Biological example 1 of WO 2019/053427 (GU). An outline of the steps:
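Uptake was read out as ^3H-2-deoxyglucose (50 nM, 10 min) radioactivity in NaOH lysates. Beforehand, overnight-starved, differentiated L6 myotubes received compound at 1×10^−5 M with ICI-118551 present for 1 h 40 min, followed by fresh agonist for a further 20 min in glucose-free medium.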

Test [2] deals with differentiated L6-myotubes. Put plainly: cAMP production relative to isoprenaline (Biological example 2 of WO 2019/053427). The format is cell-based. The note with it: 0.25 h, compound at 10 μM, activity relative to isoproterenol at 10 μM. In outline:
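Values are cAMP levels relative to isoprenaline at equal concentration (final 1×10^−5 M for both). Stimulation lasted 15 min in differentiated L6 myotubes, using HBSS buffer (pH 7.4) containing 1 mM IBMX, 5 mM HEPES and 1% BSA.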
(Cyclic AMP is a second messenger, typically raised through Gs and lowered through Gi signalling.)

For `CS(=O)(=O)N(Cc1ccccc1)c1cccc(CC23CCC([C@@H](O)c4cccc(F)c4)(CC2)N3)c1` [Compound 512, (S)-[4-({m-[(benzyl)-N-mesylamino]phenyl}methyl)-7-azabicyclo[2.2.1]hept-1-yl](m-fluorophenyl)methanol], the Emax at 10 µM in test [1] and in test [2] was < 25% each time.

Consider `CS(=O)(=O)N(Cc1ccccc1)c1cccc(CC23CCC([C@H](O)c4cccc(F)c4)(CC2)N3)c1` [Compound 513, (R)-[4-({m-[(benzyl)-N-mesylamino]phenyl}methyl)-7-azabicyclo[2.2.1]hept-1-yl](m-fluorophenyl)methanol], for which the Emax at 10 µM in test [1] was 25 to 50%; in test [2] it was < 25%.

`CS(=O)(=O)Nc1cccc(CC23CCC([C@@H](O)c4cccc(F)c4)(CC2)N3)c1` [Compound 514, (S)-(m-fluorophenyl)(4-{[m-(mesylamino)phenyl]methyl}-7-azabicyclo[2.2.1]hept-1-yl)methanol]: the Emax at 10 µM in test [1] is 50 to 75%; in test [2], < 25%.

In the case of `CS(=O)(=O)Nc1cccc(CC23CCC([C@H](O)c4cccc(F)c4)(CC2)N3)c1` [Compound 515, (R)-(m-fluorophenyl)(4-{[m-(mesylamino)phenyl]methyl}-7-azabicyclo[2.2.1]hept-1-yl)methanol], the values for the Emax at 10 µM in test [1] and in test [2] were 50 to 75% and 25 to 50%, respectively.

As to `CC(C)(C[C@H]1CC[C@H](S(N)(=O)=O)CC1)NC[C@H](O)c1cccc(F)c1` [Compound 516, (1R,4r)-4-{2-[(R)-2-(m-fluorophenyl)-2-hydroxyethylamino]-2-methylpropyl}cyclohexanesulfonamide], the Emax at 10 µM in test [1] is > 75%; in test [2] it was < 25%.

Turning to `CC(C)(C[C@H]1CC[C@@H](S(N)(=O)=O)CC1)NC[C@H](O)c1cccc(F)c1` [Compound 517, (1S,4s)-4-{2-[(R)-2-(m-fluorophenyl)-2-hydroxyethylamino]-2-methylpropyl}cyclohexanesulfonamide], the figures for the Emax at 10 µM in test [1] and in test [2] were 25 to 50% and < 25%, respectively.

As for `CC(C)(C[C@H]1CC[C@H](S(N)(=O)=O)CC1)NC[C@H](O)c1cncc(F)c1` [Compound 518, (1R,4r)-4-{2-[(R)-2-(5-fluoro-3-pyridyl)-2-hydroxyethylamino]-2-methylpropyl}cyclohexanesulfonamide], the values for the Emax at 10 µM in test [1] and in test [2] were 50 to 75% and < 25%, respectively.

For the compound `CC(C)(C[C@H]1CC[C@@H](S(N)(=O)=O)CC1)NC[C@H](O)c1cncc(F)c1` [Compound 519, (1S,4s)-4-{2-[(R)-2-(5-fluoro-3-pyridyl)-2-hydroxyethylamino]-2-methylpropyl}cyclohexanesulfonamide], the values for the Emax at 10 µM in test [1] and in test [2] were > 75% and < 25%, respectively.

For `CN([C@H]1CC[C@@H](CC(C)(C)NC[C@H](O)c2cncc(F)c2)CC1)S(C)(=O)=O` [Compound 520, (R)-2-{1,1-dimethyl-2-[(1s,4S)-4-(N-mesyl-N-methylamino)cyclohexyl]ethylamino}-1-(5-fluoro-3-pyridyl)-1-ethanol], the values for the Emax at 10 µM in test [1] and in test [2] were 50 to 75% and < 25%, respectively.

Consider `CN([C@H]1CC[C@H](CC(C)(C)NC[C@H](O)c2cncc(F)c2)CC1)S(C)(=O)=O` [Compound 521, (R)-2-{1,1-dimethyl-2-[(1r,4R)-4-(N-mesyl-N-methylamino)cyclohexyl]ethylamino}-1-(5-fluoro-3-pyridyl)-1-ethanol], for which the values for the Emax at 10 µM in test [1] and in test [2] were 50 to 75% and < 25%, respectively.

For the compound `CC(C)(C[C@H]1CC[C@@H](NS(=O)(=O)C(F)(F)F)CC1)NC[C@H](O)c1cncc(F)c1` [Compound 522, (R)-2-{1,1-dimethyl-2-[(1s,4S)-4-(trifluoromesylamino)cychloehxyl]ethylamino}-1-(5-fluoro-3-pyridyl)-1-ethanol], the Emax at 10 µM in test [1] is > 75%; in test [2] it was < 25%.
